Results taken from patent US20240199571A1, “THIOPHENE COMPOUND AND APPLICATION THEREOF” (MEDSHINE DISCOVERY INC., priority 2021, published 2024).
Counter-ions that a name gives are not always drawn.

How the values were obtained:
human LSD1 = human LSD1 (Homo sapiens (Human), UniProt O60341); assay: Experiment 1A: in vitro LSD1 enzyme activity, enzyme-coupled fluorescence (HRP/Amplex Red), H3K4me peptide 20 μM (Wuhan Heyan); type: biochemical; settings: histone H3K4me peptide 20 μM
Experimental: Experiment 1A: Evaluation of Enzyme Activity
Testing unit: Wuhan Heyan Biomedical Technology Co., Ltd.
The purpose of the assay was to test the in vitro inhibitory activity of the compounds against LSD1. The enzyme used in the assay was human LSD1, and the standard substrate was histone H3K4me peptide (20 μM). The activity of the compounds was determined by the enzyme-coupling fluorescent method by the combined detection of H2O2 generated after the reaction of LSD1 by horseradish peroxidase (HRP) and the fluorescent reagent Amplex Red. Starting from 10 μM, the compounds were 3-fold diluted to detect the IC50 values of the compounds at 10 concentrations. The enzyme and substrate were incubated for 30 minutes before the compound was added to the substrate to start the reaction. Fluorescence detector: EnVision, excitation wavelength: Ex/Em=530/590 nM.

NCI-H1417 cells = assay: Experiment 2: inhibition of NCI-H1417 cell proliferation (CellTiter-Glo, 10 days); type: cell-based; settings: Homo sapiens, 240 h, 10 days incubation
Procedure, shortened: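 Cells at 1000 per well exposed to 10-point 3-fold dilutions from 10 μM top concentration for 10 days. Viability by CellTiter-Glo luminescence; inhibition normalized to max/min controls, IC50 from four-parameter fit.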

[1] = Experiment 3: pharmacokinetic evaluation in CD-1 mice (IV and oral); type: in vivo; settings: mouse, plasma, female CD-1 mice; for clearance / half-life / Vd: IV 1 mg/kg; for clearance: read-out: Clearance rate CL; for half-life: read-out: Half life T1/2 (IV, h) (converted); for Vd: read-out: Volume of distribution at steady state Vdss; for bioavailability: PO 2 mg/kg vs IV 1 mg/kg, read-out: Bioavailability F (%); for AUC(0-t): PO 2 mg/kg, read-out: Area under drug-time curve AUC0-last PO; for Cmax: single dose, oral 2 mg/kg, read-out: Peak concentration Cmax
Experimental: Experiment 3: Pharmacokinetic Evaluation of Compounds
Experimental purpose: To test the pharmacokinetics of compounds in CD-1 mice in vivo
CD-1 mice (male/female, 7 to 9 weeks old, Shanghai SLAC)
The pharmacokinetic characteristics of the compounds in rodents after intravenous injection and oral administration were tested according to the standard protocol. In the experiment, the candidate compound was formulated into clear solutions, and a single intravenous injection and oral administration were given to mice. The vehicle for intravenous injection and oral administration was a mixed vehicle composed of 10% dimethyl sulfoxide and 90% hydroxypropyl β-cyclodextrin with a content of 10%. In this project, four male/female CD-1 mice were used. Two mice were injected intravenously at a dose of 1 mg/kg, and plasma samples were collected at 0.083, 0.25, 0.5, 1, 2, 4, 8, and 24 hours after administration; the other two were administered orally by gavage at a dose of 2 mg/kg, and plasma samples were collected at 0.25, 0.5, 1, 2, 4, 8, and 24 hours after administration. The samples were centrifuged at 3200 g for 10 minutes at 4° C., and plasma samples were obtained by separating the supernatant. A methanol solution containing internal standard with 20 times the volume of the sample was added thereto to precipitate the protein, and the mixture was centrifuged at 12000 g for 15 minutes at 4° C. 50 μL of the supernatant was taken and transferred to a 96-well plate and centrifuged again. The supernatant was taken for sampling. The plasma concentration was quantitatively analyzed using LC-MS/MS analysis method, and pharmacokinetic parameters, such as peak concentration (Cmax), clearance rate (CL), half-life (T1/2), volume of distribution at steady state (Vdss), area under drug-time curve (AUC0-last), bioavailability (F).

| SMILES | IC50 (human LSD1) [nM] | IC50 (NCI-H1417 cells) [nM] | clearance [1] [mL/min/kg] | half-life [1] [h] | Vd [1] [L/kg] | bioavailability [1] [%] | AUC(0-t) [1] [µM·h] | Cmax [1] [nM] |
| --- | --- | --- | --- | --- | --- | --- | --- | --- |
| COc1ccc(-c2sc(C(=O)N3CCCNCC3)cc2-c2ccc(C#N)c(F)c2)cc1F [Hydrochloride of compound 6] | 112 | 37.9 | 18 | 5.37 | 7.76 | 64 | 2.52 | 222 |
| COc1ccc(-c2sc(C(=O)N3CC[C@H](N)C3)cc2-c2ccc(C#N)c(F)c2)cc1F [Hydrochloride of compound 7] | 121 | 20.4 | 20.9 | 3.74 | 6.19 | 52.4 | 1.89 | 176 |
